# Experimental data as given in patent publication US6599930B2, “Coniosetin and derivatives thereof, process for the preparation and the use thereof” (Aventis Pharma Deutschland GmbH, priority 2000, dated 2003).
# Like-named read-outs stand apart in the source and are kept apart here.
# How the values were obtained:
# [1] = tested on: Enterococcus faecalis; test: MIC, serial dilution test; assay type: cell-based
# From the text: (§1) Table 1 summarizes the minimum inhibitory concentrations (MIC) of coniosetin by way of example.
# [2] = tested on: Enterococcus faecium; test: MIC, serial dilution test; assay type: cell-based; settings: teiR vanR eryR tetR
# From the text: as §1
# [3] = tested on: Escherichia coli; test: MIC, serial dilution test; assay type: cell-based; settings: 18 h
# From the text: as §1
# [4] = tested on: S. agalactiae; test: MIC, serial dilution test; assay type: cell-based; settings: Streptococcus agalactiae, ery R
# From the text: as §1
# [5] = tested on: S. epidermidis; test: MIC, serial dilution test; assay type: cell-based; settings: Staphylococcus epidermidis
# From the text: as §1
# [6] = tested on: S. mitis; test: MIC, serial dilution test; assay type: cell-based; settings: Streptococcus mitis
# From the text: as §1
# [7] = tested on: S. pneumoniae; test: MIC, serial dilution test; assay type: cell-based; settings: Streptococcus pneumoniae
# From the text: as §1
# [8] = tested on: S. pyogenes; test: MIC, serial dilution test; assay type: cell-based; settings: Streptococcus pyogenes
# From the text: as §1
# [9] = tested on: S. sanguis; test: MIC, serial dilution test; assay type: cell-based; settings: ery R
# From the text: as §1
# [10] = tested on: Staphylococcus aureus; test: MIC, serial dilution test; assay type: cell-based
# From the text: as §1
# [11] = tested on: Streptococcus gr. G; test: MIC, serial dilution test; assay type: cell-based
# From the text: as §1
# [12] = tested on: Aspergillus niger; test: Agar diffusion test; assay type: cell-based; settings: for zone of inhibition at 10000 µM: 40 h, A. niger, 28° C., 40 hours, read-out: Zone of inhibition, diameter
# Procedure: (§2) Agar plates were prepared with a 2 ml inoculum of Staphylococcus aureus in 200 ml of agar solution, a 2 ml inoculum of Escherichia coli in 200 ml of agar; a 2 ml inoculum of Candida albicans in 200 ml of agar solution; a 1 ml inoculum of Aspergillus niger in 200 ml of agar solution and a 3 ml inoculum of Streptomyces murinus in 200 ml of agar solution. The coniosetin was applied in a 10 mM solution to disks with a diameter of 6 mm and placed on the agar plate. The inoculated Staphylococcus, E. coli and Candida plates were incubated at 37° C. for 16 hours, the A. niger plate was incubated at 28° C. for 40 hours, and the Streptomyces plate was incubated at 28° C. for 16 hours. Zones of inhibition with the following diameters (mm) were then observed.
# [13] = tested on: Candida albicans; test: Agar diffusion test; assay type: cell-based; settings: for zone of inhibition at 10000 µM: 16 h, C. albicans, 37° C., 16 hours, read-out: Zone of inhibition, diameter
# Procedure: as §2
# [14] = tested on: Escherichia coli; test: Agar diffusion test; assay type: cell-based; settings: E. coli, 37° C., 16 hours
# Procedure: as §2
# [15] = tested on: Staphylococcus aureus; test: Agar diffusion test; assay type: cell-based; settings: 16 h, S. aureus, 37° C., read-out: Zone of inhibition, diameter
# Procedure: as §2
# [16] = tested on: Streptomyces murinus; test: Agar diffusion test; assay type: cell-based; settings: 16 h, S. murinus, 28° C., read-out: Zone of inhibition, diameter
# Procedure: as §2
# [17] = Solubility; assay type: physicochemical
# [18] = Stability in solution; assay type: physicochemical
# [19] = Tolerability; settings: at the effective concentration and at higher concentrations
# [20] = tested on: bacteria; test: Antibacterial effect, general statements; assay type: cell-based; settings: general statement
# [21] = tested on: bacteria; settings: as described in the cited literature; cited from earlier work
# [22] = 10 μl of 10 mM solution on 6 mm disk
# [23] = 20 μl of 10 mM solution on 6 mm disk
# [24] = 40 μl of 10 mM solution on 6 mm disk
# [25] = compared with the antibacterial effect (Example 8)
compound,measurement,setting,value
C/C=C/C=C/C1C(C)=CC2CC(C)CCC2C1(C)/C(O)=C1\C(=O)NC(C(C)O)C1=O (centres unmarked) [coniosetin],MIC,"[1]; ery R, 24 h",2.5 µg/mL
same,MIC,"[1]; ery R, 48 h",2.5 µg/mL
same,MIC,"[1]; ery R, after 18 h",2.5 µg/mL
same,MIC,"[1]; ery S, 24 h, read-out: MIC",2.5 µg/mL
same,MIC,"[1]; ery S, 48 h, read-out: MIC",2.5 µg/mL
same,MIC,"[1]; ery S, after 18 h, read-out: MIC",2.5 µg/mL
same,MIC,[2]; 24 h,1.2 µg/mL
same,MIC,[2]; 48 h,2.5 µg/mL
same,MIC,[2]; after 18 h,1.2 µg/mL
same,MIC,[3],> 40 µg/mL
same,MIC,[4]; 24 h,2.5 µg/mL
same,MIC,[4]; 48 h,2.5 µg/mL
same,MIC,[4]; after 18 h,2.5 µg/mL
same,MIC,"[5]; 18 h, oxa R ery R, after 18 h",0.6 µg/mL
same,MIC,"[5]; 18 h, oxa S ery R, after 18 h",0.3 µg/mL
same,MIC,"[5]; 24 h, oxa R ery R",1.2 µg/mL
same,MIC,"[5]; 24 h, oxa S ery R",0.3 µg/mL
same,MIC,"[5]; 48 h, oxa R ery R",1.2 µg/mL
same,MIC,"[5]; 48 h, oxa S ery R",0.3 µg/mL
same,MIC,"[6]; 18 h, ery R, after 18 h",2.5 µg/mL
same,MIC,"[6]; 18 h, ery S, after 18 h",1.2 µg/mL
same,MIC,"[6]; 24 h, ery R",2.5 µg/mL
same,MIC,"[6]; 24 h, ery S",2.5 µg/mL
same,MIC,"[6]; 48 h, ery R",2.5 µg/mL
same,MIC,"[6]; 48 h, ery S",2.5 µg/mL
same,MIC,"[7]; 18 h, ery R (first listed strain), after 18 h",0.6 µg/mL
same,MIC,"[7]; 18 h, ery R (second listed strain), after 18 h",0.6 µg/mL
same,MIC,"[7]; 18 h, ery R (third listed strain), after 18 h",0.6 µg/mL
same,MIC,"[7]; 18 h, ery R pen R (first listed strain), after 18 h",0.6 µg/mL
same,MIC,"[7]; 18 h, ery R pen R (second listed strain), after 18 h",0.6 µg/mL
same,MIC,"[7]; 18 h, ery S pen R, after 18 h",0.6 µg/mL
same,MIC,"[7]; 18 h, ery S, after 18 h",0.6 µg/mL
same,MIC,"[7]; 24 h, ery R (first listed strain)",0.6 µg/mL
same,MIC,"[7]; 24 h, ery R (second listed strain)",0.6 µg/mL
same,MIC,"[7]; 24 h, ery R (third listed strain)",0.6 µg/mL
same,MIC,"[7]; 24 h, ery R pen R (first listed strain)",0.6 µg/mL
same,MIC,"[7]; 24 h, ery R pen R (second listed strain)",0.6 µg/mL
same,MIC,"[7]; 24 h, ery S",0.6 µg/mL
same,MIC,"[7]; 24 h, ery S pen R",1.2 µg/mL
same,MIC,"[7]; 48 h, ery R (first listed strain)",0.6 µg/mL
same,MIC,"[7]; 48 h, ery R (second listed strain)",0.6 µg/mL
same,MIC,"[7]; 48 h, ery R (third listed strain)",1.2 µg/mL
same,MIC,"[7]; 48 h, ery R pen R (first listed strain)",0.6 µg/mL
same,MIC,"[7]; 48 h, ery R pen R (second listed strain)",0.6 µg/mL
same,MIC,"[7]; 48 h, ery S",0.6 µg/mL
same,MIC,"[7]; 48 h, ery S pen R",1.2 µg/mL
same,MIC,"[8]; 18 h, ery R, after 18 h",1.2 µg/mL
same,MIC,"[8]; 18 h, ery S, after 18 h",0.6 µg/mL
same,MIC,"[8]; 24 h, ery R",1.2 µg/mL
same,MIC,"[8]; 24 h, ery S",1.2 µg/mL
same,MIC,"[8]; 48 h, ery R",1.2 µg/mL
same,MIC,"[8]; 48 h, ery S",1.2 µg/mL
same,MIC,[9]; 24 h,1.2 µg/mL
same,MIC,[9]; 48 h,2.5 µg/mL
same,MIC,[9]; after 18 h,1.2 µg/mL
same,MIC,"[10]; 18 h, S. aureus, oflR oxaR eryR tetR, after 18 h",0.6 µg/mL
same,MIC,"[10]; 18 h, S. aureus, oxa R ery R, after 18 h",0.3 µg/mL
same,MIC,"[10]; 18 h, S. aureus, oxa S ery R (first listed strain), after 18 h",0.3 µg/mL
same,MIC,"[10]; 18 h, S. aureus, oxa S ery R (second listed strain), after 18 h",0.6 µg/mL
same,MIC,"[10]; 18 h, S. aureus, oxaR eryR tetR, after 18 h",0.3 µg/mL
same,MIC,"[10]; 18 h, ery S, after 18 h",0.3 µg/mL
same,MIC,"[10]; 24 h, S. aureus, oflR oxaR eryR tetR",0.6 µg/mL
same,MIC,"[10]; 24 h, S. aureus, oxa R ery R",0.3 µg/mL
same,MIC,"[10]; 24 h, S. aureus, oxa S ery R (first listed strain)",0.3 µg/mL
same,MIC,"[10]; 24 h, S. aureus, oxa S ery R (second listed strain)",0.6 µg/mL
same,MIC,"[10]; 24 h, S. aureus, oxaR eryR tetR",0.3 µg/mL
same,MIC,"[10]; 24 h, ery S",0.3 µg/mL
same,MIC,"[10]; 48 h, S. aureus, oflR oxaR eryR tetR",0.6 µg/mL
same,MIC,"[10]; 48 h, S. aureus, oxa R ery R",0.3 µg/mL
same,MIC,"[10]; 48 h, S. aureus, oxa S ery R (first listed strain)",0.3 µg/mL
same,MIC,"[10]; 48 h, S. aureus, oxa S ery R (second listed strain)",0.6 µg/mL
same,MIC,"[10]; 48 h, S. aureus, oxaR eryR tetR",0.3 µg/mL
same,MIC,"[10]; 48 h, ery S",0.6 µg/mL
same,MIC,"[11]; 18 h, ery R, after 18 h",0.6 µg/mL
same,MIC,"[11]; 18 h, ery S, after 18 h",1.2 µg/mL
same,MIC,"[11]; 24 h, ery R",0.6 µg/mL
same,MIC,"[11]; 24 h, ery S",1.2 µg/mL
same,MIC,"[11]; 48 h, ery R",0.6 µg/mL
same,MIC,"[11]; 48 h, ery S",1.2 µg/mL
same,zone of inhibition at 10000 µM,[12]; [22],0 mm
same,zone of inhibition at 10000 µM,[12]; [23],0 mm
same,zone of inhibition at 10000 µM,[12]; [24],8 mm
same,Inhibitory effect on fungi,[12]; [25],inhibitory effect—although weaker
same,zone of inhibition at 10000 µM,[13]; [22],9 mm
same,zone of inhibition at 10000 µM,[13]; [23],10 mm
same,zone of inhibition at 10000 µM,[13]; [24],10.5 mm
same,Inhibitory effect on yeasts,[13]; [25],inhibitory effect—although weaker
same,"Zone of inhibition, diameter",[14]; [23],0 mm
same,"Zone of inhibition, diameter",[14]; [24],0 mm
same,zone of inhibition at 10000 µM,"[14]; Escherichia coli, 10 μl of 10 mM solution on 6 mm disk, read-out: Zone of inhibition, diameter",0 mm
same,zone of inhibition at 10000 µM,[15]; [22],13 mm
same,zone of inhibition at 10000 µM,[15]; [23],14.5 mm
same,zone of inhibition at 10000 µM,[15]; [24],15.5 mm
same,zone of inhibition at 10000 µM,[16]; [22],0 mm
same,zone of inhibition at 10000 µM,[16]; [23],9 mm
same,zone of inhibition at 10000 µM,[16]; [24],10 mm
same,Solubility in organic solvents,[17]; organic solvents of medium polarity and above,soluble
same,Solubility in water,[17]; water,low solubility
same,Stability,[18]; neutral and weakly acidic media,Stable
same,Stability,[18]; strongly acidic and strongly alkaline solution,unstable
same,Tolerability,[19],well-tolerated
same,Antibacterial effect,[20],very good antibacterial activity
CCCCCCC/C=C/C(=O)N1C(O)=C(C(C)=O)C(=O)[C@H]1CC(C)C [reutericyclin],Antibacterial activity,[21],weak antibacterial activity
harzianic acid,Antibacterial activity,[21],very low activity
